Molecular target: T1, Bile acid receptor (Homo sapiens, UniProt Q96RI1)
T1 sequence (Q96RI1 whole entry): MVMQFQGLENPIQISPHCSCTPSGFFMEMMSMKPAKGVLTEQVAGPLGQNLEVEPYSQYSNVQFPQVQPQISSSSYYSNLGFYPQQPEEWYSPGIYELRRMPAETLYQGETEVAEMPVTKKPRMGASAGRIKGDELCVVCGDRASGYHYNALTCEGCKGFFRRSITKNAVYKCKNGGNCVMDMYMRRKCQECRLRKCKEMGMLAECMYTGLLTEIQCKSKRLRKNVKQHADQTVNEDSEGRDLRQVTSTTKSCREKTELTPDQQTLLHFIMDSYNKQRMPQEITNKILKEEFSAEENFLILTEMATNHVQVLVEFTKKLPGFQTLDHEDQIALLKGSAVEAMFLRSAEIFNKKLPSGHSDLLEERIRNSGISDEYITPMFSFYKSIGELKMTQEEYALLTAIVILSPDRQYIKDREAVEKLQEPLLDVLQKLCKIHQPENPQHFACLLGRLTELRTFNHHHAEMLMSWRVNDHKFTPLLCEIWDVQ
Assay: FXR Reporter Assay kit purchased from Indigo Bioscience (Catalogue number: IB00601) to determine the potency and efficacy of compound developed by Enanta that can induce FXR activation. The principle application of this reporter assay system is to quantify functional activity of human FXR. The assay utilizes non-human mammalian cells, CHO (Chinese hamster ovary) cells engineered to express human NR1H4 protein (referred to as FXR). Reporter cells also incorporate the cDNA encoding beetle luciferase which catalyzes the substrates and yields photon emission. Luminescence intensity of the reaction is quantified using a plate-reading luminometer, Envision. Reporter Cells include the luciferase reporter gene functionally linked to an FXR responsive promoter. Thus, quantifying changes in luciferase expression in the treated reporter cells provides a sensitive surrogate measure of the changes in FXR activity. […] The assay is according to the manufacturer's instructions. In brief, the assay was performed in white, 96 well plates using final volume of 100 μl containing cells with different doses of compounds. Retrieve Reporter Cells from −80° C. storage. Perform a rapid thaw of the frozen cells by transferring a 10 ml volume of 37° C. cell recovery medium into the tube of frozen cells. Recap the tube of Reporter Cells and immediately place it in a 37° C. water bath for 5-10 minutes. […]
Assay type: cell-based

Question: With `CN(C)S(=O)(=O)NC(=O)c1ccc2nc(N3C4CC[C@H]3C[C@H](OCc3c(-c5c(Cl)cccc5Cl)noc3C3CC3)C4)sc2c1` as the compound, how does the EC50 read?
Answer: Its EC50 is < 100 nM.

Source: ChEMBL document CHEMBL5725965, “Isoxazole derivatives as FXR agonists and methods of use thereof” (2018)
